*1 amine or outer side, *2 acyl side, *3 side chain or, on linkers, in order; H or OH if unused. Where a SMILES comes first, the peptide text is derived from it. [ ]: non-standard residue; d: D form. The star is where a group is joined. ξ: configuration not given here. X2 = Cn1cncc1C(O)C(N[*:1])C(=O)[*:2]; X3 = COC(CN[*:1])C(O)C(O)C(=O)[*:2]; ξVal(3-OH) = CC(C)(O)C(N)C(=O)O; NMeF = CN[CH](Cc1ccccc1)C(=O)O; X4 = O=C(C(O)N[*:1])[*:2]; X1 = CC(O)C(O)C(=O)*
How the values were obtained:
E. coli strain ATCC35218 = type: cell-based, Escherichia coli
Experimental: The present in vitro test identifies molecules having antimicrobial activity on the microorganisms by quantification of the culture optical density. Optical density compared to a vial with the same medium non inoculated by bacteria is an indicator of the bacterial growth. Minimal inhibitory concentrations were evaluated following the CLSI and EUCAST guidelines. Bacterial inoculum were prepared by overnight culture in cation-adjusted Mueller-Hinton II (MHII) medium from colonies isolated from colonies on agar plates, then diluted to evaluate the colony forming units (cfu) using the McFarland turbidity standard. A 96 well plate was inoculated with 100 μl of 5.105 cfu/ml in MHII, and test compounds prepared by serial dilution at 100× concentration in DMSO. After a 20-22 h incubation, optical density was evaluated on a microplate reader and the MIC endpoint was determined as the lowest concentration of antibiotic at which there is no visible growth in duplicates, meaning that optical density differs no more from negative controls than 10% of the difference in optical density between negative controls (medium, no bacteria) and positive control (bacteria in medium, no antibiotics).

[1] = test system: Escherichia coli ATCC 35218; test: Antibacterial activity against Escherichia coli: inhibitory activity (IC80), broth microdilution, absorbance at 590 nm; type: cell-based; settings: Mueller Hinton broth, 37° C., 20 hours, growth inhibited by 80%
Experimental: A stock solution of 1000 μg/ml of the test compound was prepared in methanol. The test strain (Escherichia coli ATCC 35218) was stored at −80° C. The inoculum was prepared from a fresh liquid preculture. The preculture was prepared from a bead of the material stored at −80° C. and 30 ml of nutrient medium (Mueller Hinton broth, Difco) and incubated at 37° C. and 180 rpm for 18 hours. The inoculum was adjusted to an optical density (OD) of 0.2 at a wavelength of 600 nm. For this, the inoculum was adjusted to a value of 10^8 CFU/ml (CFU: colony forming units). After the adjustment of the inoculum, the suspension was diluted with nutrient solution (Mueller Hinton broth, Difco) in a ratio of 1:10000. The microtiter plate was inoculated within 15 min of preparation of the inoculum. The exact colony count was determined by means of surface culture. Using the stock solution of the test compound and the nutrient medium (Mueller Hinton broth, Difco), a dilution series was prepared beforehand on the microtiter plate. […] The microtiter plates were read with the aid of a photometer at a wavelength of 590 nm by measurement of the absorption. IC80 values were subsequently calculated from the values of the dilution series according to a standard process as the concentration of the test compound which is necessary in order to inhibit the growth of the test organism Escherichia coli by 80%.

Absorbance MIC (E. coli strain ATCC35218) [µg/mL] | SMILES | IC80 for inhibition of Escherichia coli ATCC 35218 [1] [µg/mL]
1 to 4 | COC(CNC(=O)C(NC(=O)C(O)C(C)O)C(O)c1cncn1C)C(O)C(O)C(=O)N(C)C(Cc1ccccc1)C(=O)NCC(=O)NC(C(=O)NC(CO)C(=O)NC(C(=O)NC(CC(C)C)C(=O)NC(CO)C(=O)O)C(C)(C)O)C(C)(C)O (stereo not drawn) [formula Ia] (X1-[X2][X3][NMeF]G[ξVal(3-OH)]S[ξVal(3-OH)]LS-OH; configuration not given here) | 
8 | COC(CNC(=O)C(NC(=O)C(O)C(C)O)C(O)c1cncn1C)C(O)C(O)C(=O)N(C)C(Cc1ccccc1)C(=O)NC(O)C(=O)NC(C(=O)NC(CO)C(=O)NC(C(=O)NC(CC(C)C)C(=O)NC(CO)C(=O)O)C(C)(C)O)C(C)(C)O (stereo not drawn) [formula Ib] (X1-[X2][X3][NMeF][X4][ξVal(3-OH)]S[ξVal(3-OH)]LS-OH; configuration not given here) | 0.71
